How the values were obtained:
BcGH88 = biological target: T1, BcGH88 (Bacteroides caccae, UniProt A0A413IVG2); assay: loss of absorbance at […] nm; assay type: biochemical; conditions: only kcat/Km determined; 100 mM Tris pH 7.4, 37 °C
T1 construct: residues 31-433, N-terminal His6 tag with thrombin site, E. coli
T1 sequence (A0A413IVG2 31-433): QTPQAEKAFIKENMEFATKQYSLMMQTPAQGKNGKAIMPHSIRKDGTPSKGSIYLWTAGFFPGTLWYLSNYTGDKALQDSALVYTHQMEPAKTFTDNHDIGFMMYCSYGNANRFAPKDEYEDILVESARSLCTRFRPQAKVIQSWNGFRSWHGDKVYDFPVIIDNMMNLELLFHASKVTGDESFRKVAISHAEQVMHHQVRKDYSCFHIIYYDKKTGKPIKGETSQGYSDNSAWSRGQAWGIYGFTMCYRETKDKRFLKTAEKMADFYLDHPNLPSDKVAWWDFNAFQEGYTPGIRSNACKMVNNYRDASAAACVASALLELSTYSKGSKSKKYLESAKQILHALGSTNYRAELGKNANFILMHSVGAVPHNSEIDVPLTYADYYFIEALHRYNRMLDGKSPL

BcGDH (GH154, BcGH154) = biological target: T2, BcGDH (GH154, BcGH154) (Bacteroides caccae, UniProt I9ECR6); assay: absorbance at […] nm; LC-ESI-MS of product; assay type: biochemical; conditions: dehydration to 4,5-unsaturated product; only kcat/Km determined; 100 mM Tris pH 7.4, 25 °C
T2 construct: gene HMPREF1061_03832; residues 24-423, N-terminal His6-thrombin tag (cleaved for crystallography), E. coli, homotetramer; site completed by Y401 of a neighbouring monomer
T2 sequence (I9ECR6 24-423): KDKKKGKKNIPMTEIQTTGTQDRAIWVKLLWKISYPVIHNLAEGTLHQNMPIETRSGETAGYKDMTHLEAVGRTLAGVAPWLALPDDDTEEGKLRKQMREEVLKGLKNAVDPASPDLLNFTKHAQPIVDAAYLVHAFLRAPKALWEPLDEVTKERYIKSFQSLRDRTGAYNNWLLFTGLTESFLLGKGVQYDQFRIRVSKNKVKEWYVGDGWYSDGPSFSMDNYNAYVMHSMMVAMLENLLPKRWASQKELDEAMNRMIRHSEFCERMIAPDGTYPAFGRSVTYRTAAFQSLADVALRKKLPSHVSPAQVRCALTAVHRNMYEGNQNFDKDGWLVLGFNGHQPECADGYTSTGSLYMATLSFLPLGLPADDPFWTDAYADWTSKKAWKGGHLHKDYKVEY

[1] = biological target: BcGDH (β-D-glucuronate dehydratase from Bacteroides caccae PUL25, previously classified as GH154) (Bacteroides caccae (strain ATCC 43185)); assay: crystal structure; unliganded BcGDH, spacegroup P2_(1), tetramer in the asymmetric unit; crystals at 18 °C from 26 g/L protein, 220 mM KCl, 24% PEG 3350; the same tetramer seen in four further unrefined crystal forms
[2] = biological target: BcGDH R285A mutant (Bacteroides caccae (strain ATCC 43185)); assay: crystal structure; BcGDH R285A soaked in 50 mM chondrosine, spacegroup P2_(1)2_(1)2_(1), tetramer in the asymmetric unit; 18 g/L protein, 0.25 M sodium iodide, 5 to 13% glycerol, 8 to 13% PEG 3350

CC(=O)N[C@H]1C(O)O[C@H](CO)[C@H](O)[C@@H]1O[C@@H]1OC(C(=O)O)=C[C@H](O)[C@H]1O (some centres unmarked) [CSΔ0S]
loss of absorbance at 232 nm (BcGH88): BcGH88 had activity on CSΔ0S and CSΔ6S with kcat/Km values

CC(=O)N[C@H]1C(O)O[C@H](COS(=O)(=O)O)[C@H](O)[C@@H]1O[C@@H]1OC(C(=O)O)=C[C@H](O)[C@H]1O (some centres unmarked) [CSΔ6S]
loss of absorbance at 232 nm (BcGH88): BcGH88 had activity on CSΔ0S and CSΔ6S with kcat/Km values

N[C@H]1C(O)O[C@H](CO)[C@H](O)[C@@H]1O[C@@H]1O[C@H](C(=O)O)[C@@H](O)[C@H](O)[C@H]1O (some centres unmarked) [chondrosine]
absorbance at 232 nm; LC-ESI-MS of product (BcGDH (GH154, BcGH154)): The absorbance increased in a time-dependent manner, with the rate of increase dependent upon the chondrosine

BcGDH (β-D-glucuronate dehydratase from Bacteroides caccae PUL25, previously classified as GH154) (enzyme)
stoichiometry N [1]: 4

BcGDH R285A mutant (enzyme)
stoichiometry N [2]: 4
